Experimental data as given in publication PMC7504735, “Enhanced Antigiardial Effect of Omeprazole Analog Benzimidazole Compounds” (Molecules, 2020).

How the values were obtained:
[1] = target: T1, triosephosphate isomerase (TPI) (Giardia intestinalis, UniProt P36186); assay: Thermal stability of TPI by circular dichroism at 222 nm; conditions: for Tm of TPI enzyme incubated with compound: compound at its IC50 concentration, 2 h at 37 °C, TPI free of treatment 60.6 °C
T1 construct: His-tag (TEV-cleavable) (cleaved yes); made in house
Experimental: All spectroscopic assays were carried out at a protein concentration of 0.2 mg/mL. Changes in the secondary structure of proteins were monitored by circular dichroism (CD) in a Jasco-810 spectropolarimeter containing a thermostated Peltier-controlled cell holder. For CD experiments, the enzyme was suspended in 50 mM phosphate buffer (buffer P), pH 7.4, and incubated with the four synthesized compounds by 2 h at 37 °C. Spectral scans from 190 to 280 nm at 0.1 nm intervals were performed at 25 °C using a quartz cell with 0.1 cm path length. All CD data were reported as molar ellipticity. In addition, the thermostability of modified TPI enzyme in the absence or presence of each of the synthesized compounds was evaluated, recording the loss of CD signal at 222 nm during a temperature scan ranging from 25 to 75 °C and an increase of 1 °C/2.5 min. The unfolded fraction of enzyme and melting temperature (Tm) was determined as reported before. The experiments were performed in triplicate.

[2] = target: T1, triosephosphate isomerase (TPI); assay: Second-order inactivation constant (k2) of TPI; type: biochemical, Giardia lamblia; conditions: read-out: Second-order inactivation constant k2
Experimental: Enzyme activity of TPI was determined spectrophotometrically as described by monitoring the conversion of glyceraldehyde-3-phosphate (GAP) to dihydroxyacetone phosphate (DHAP). Briefly, the conversion of GAP to DHAP using a coupling system with enzyme α-glycerol-3-phosphate dehydrogenase (α-GDH) was determinate by measuring NADH oxidation at 340 nm, at 25 °C. The standard reaction mixture contained 1 mM GAP, 0.2 mM NADH, and 0.9 units/mL of α-GDH in TE buffer (100 mM triethanolamine, 10 mM EDTA, pH 7.4). The reaction was initiated by adding 5 ng/mL of TPI to the reaction mixture.
To determine the inactivation of the TPI enzyme from G. lamblia, we performed inactivation assays of the enzyme in the presence of the synthesized compounds. The compounds’ stock solutions were freshly prepared using 100% dimethyl sulfoxide (DMSO) as the solvent at 25 mM. The inactivation assays were performed by incubating 0.2 mg/mL of the TPI enzyme for 2 h at 37 °C in TE buffer with increasing concentrations of the compounds (0 to 500 μM). […] After the incubation period, the enzymatic activity was measured by withdrawing an aliquot of each experimental condition, as described above. The results were expressed in terms of the percentage of activity versus the compound’s concentration.
The second-order rate constants of inactivation were calculated by obtaining the pseudo-first-order rate constant (k1) values at each fixed concentration by fitting them to an exponential decay curve. Then, the k1 values were replotted against the concentrations of each compound; the second-order rate constant value of inactivation was obtained from the slope of these plots.

Caco-2 cells = assay: in vitro; type: cell-based
Experimental: (§1) The cytotoxicity of compounds was investigated on human cell lines Caco-2 (ATCC HTB-37) and HT-29 (ATCC HHTB-38), using a Cell Proliferation Kit II (XTT; St Louis, MO, USA) according to the manufacturer’s instructions. A cell suspension of 10^5 cells/mL was prepared in Dulbecco’s modified Eagle’s (DMEM); medium supplemented with 10% inactivated fetal bovine serum and 1% Penicillin/streptomycin (5000 U/mL), from confluent cultures, and […] portions of the suspension were added to the wells of 96-well plates. […] Solutions of the compound were prepared and sterilized as described in Section 3.4.1 of Materials and Methods. Then, 150 μL of two-fold serial dilutions of each of the compounds, starting at a concentration of 500 µM, in a culture medium at a concentration of 0.3% DMSO, were prepared in the plates. […] Each compound was assayed in triplicate via three independent experiments.

in vitro = type: cell-based; conditions: human, Caco-2; for selectivity ratio at 48 h: ratio of CC50/IC50 between mammal cells and trophozoites, read-out: Selectivity index (SI), CC50 Caco-2 / IC50 trophozoites; for CC50 at 48 h: XTT; for viability at 48 h, 500 µM: read-out: Viability of Caco-2 cells (lowered to)
Experimental: as §1

[3] = 500 µM (highest concentration tested)

T1 sequence (P36186 whole entry): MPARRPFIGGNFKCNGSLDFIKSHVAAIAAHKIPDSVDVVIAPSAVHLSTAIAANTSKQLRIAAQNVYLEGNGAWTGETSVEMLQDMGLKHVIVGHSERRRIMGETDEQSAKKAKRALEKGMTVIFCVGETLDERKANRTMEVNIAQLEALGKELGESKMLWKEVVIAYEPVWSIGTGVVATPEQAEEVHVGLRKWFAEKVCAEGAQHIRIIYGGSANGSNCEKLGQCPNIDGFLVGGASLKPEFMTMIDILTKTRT

With `Cc1c(OCC(F)(F)F)ccnc1C[S+]([O-])c1nc2ccccc2[nH]1` (centres unmarked) [Lansoprazole, 2-{[3-methyl-4-(2,2,2-trifluoroethoxy)pyridin-2-yl]methanesulfinyl}-1H-benzimidazole, reference compound] the “Tm of TPI enzyme incubated with compound” value [1] was 60.2 °C, the kinact/KI [2] was 1.78 M⁻¹ s⁻¹ and the “Cell viability decrease, Caco-2” value (Caco-2 cells; [3]) was “approximately 20%”. The CC50 (Caco-2 cells; XTT, 48 h) was 2640 µM and the selectivity ratio at 48 h (in vitro) was 59.
In the case of `COc1c(C)cnc(C[S+]([O-])c2nc3ccccc3[nH]2)c1C` (centres unmarked) [H-BZM2, 2-[(4-methoxy-3,5-dimethylpyridin-2-yl)methanesulfinyl]-1H-benzimidazole], the “Tm of TPI enzyme incubated with compound” value [1] is reported as 59.9 °C, the kinact/KI [2] is reported as 2.3 M⁻¹ s⁻¹ and the “Cell viability decrease, Caco-2” value (Caco-2 cells; [3]) is reported as “approximately 20%”. The CC50 at 48 h (in vitro) was 3180 µM and the selectivity ratio at 48 h (in vitro) was 88.
In the case of `Cc1c(OCC(F)(F)F)ccnc1C[S+]([O-])c1nc2ccc([N+](=O)[O-])cc2[nH]1` (centres unmarked) [O2N-BZM9, 2-{[3-methyl-4-(2,2,2-trifluoroethoxy)pyridin-2-yl]methanesulfinyl}-5-nitro-1H-benzimidazole], the “Tm of TPI enzyme incubated with compound” value [1] is reported as 58.4 °C, the kinact/KI [2] is reported as 2.8 M⁻¹ s⁻¹ and the “Cell viability decrease, Caco-2” value (Caco-2 cells; 150 µM) is reported as “around 20%”. The viability at 48 h, 500 µM (in vitro) was roughly 50%, the CC50 at 48 h (in vitro) was 663 µM and the selectivity ratio at 48 h (in vitro) was 39.
With `O=[N+]([O-])c1ccc2nc([S+]([O-])Cc3ccccn3)[nH]c2c1` (centres unmarked) [O2N-BZM7, 5-nitro-2-[(pyridin-2-yl)methanesulfinyl]-1H-benzimidazole] the “Tm of TPI enzyme incubated with compound” value [1] was 57.5 °C, the “Loss in thermal stability of TPI” value ([1]; versus TPI free of treatment) was 3 °C and the kinact/KI [2] was 3.2 M⁻¹ s⁻¹. For the same molecule, the “Cell viability decrease, Caco-2” value (Caco-2 cells; 150 µM) was “around 20%”, the viability at 48 h, 500 µM (in vitro) was roughly 50% and the CC50 at 48 h (in vitro) was 640 µM. For the same molecule, the selectivity ratio at 48 h (in vitro) was 45.
